Values quoted from earlier work, collected in patent US20100183739A1, “Treatment and prevention of systemic bacterial infections in plants using antimicrobial metal compositions” (priority 2009, published 2010).

System: bacteria
Details: Appl Environ Microbiol. 2008; 74(7): 2171-2178

[Ag+] [silver ion]
silver ion concentration for inhibition of bacterial growth: below 5 ppm
